The term IC50 denotes the midpoint of a concentration-inhibition curve.

SMILES strings stand for the structures.

The target in the first assay is T1, PD-1/PD-L1 (Homo sapiens, UniProt Q9NZQ7).
T1 construct: made in house; host or cells: HEK293T
T1 sequence (Q9NZQ7 with tags, fused parts or gaps): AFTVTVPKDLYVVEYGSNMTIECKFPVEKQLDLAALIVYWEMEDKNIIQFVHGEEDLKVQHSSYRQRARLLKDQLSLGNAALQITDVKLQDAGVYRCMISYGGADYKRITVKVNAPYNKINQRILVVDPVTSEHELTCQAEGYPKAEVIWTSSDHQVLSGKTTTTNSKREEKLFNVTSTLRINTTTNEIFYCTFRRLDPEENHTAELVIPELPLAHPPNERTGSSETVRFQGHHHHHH
Put plainly: PD-1/PD-L1 Homogenous Time-Resolved Fluorescence (HTRF) binding assay. The settings on record: PD-L1-His 10 nM, PD-1-Ig 20 nM; numeric IC50; read-out: Range or IC50. Here is the method: The ability of the compounds of formula (I) to bind to PD-L1 was investigated using a PD-1/PD-L1 Homogenous Time-Resolved Fluorescence (HTRF) binding assay.
Homogenous Time-Resolved Fluorescence (HTRF) Binding Assay.
All binding studies were performed in an HTRF assay buffer consisting of dPBS supplemented with 0.1% […] bovine serum albumin and 0.05% (v/v) Tween-20. […] HTRF detection was achieved using europium crypate-labeled anti-Ig (1 nM final) and allophycocyanin (APC) labeled anti-His (20 nM final). Antibodies were diluted in HTRF detection buffer and 5 μl was dispensed on top of the binding reaction. […] Additional binding assays were established between the human proteins PD-1-Ig/PD-L2-His (20 & 5 nM, respectively) and CD80-His/PD-L1-Ig (100 & 10 nM, respectively). […]
In the case of `Cc1c(COc2cc(OCc3cncc(C#N)c3)c(CN[C@@](C)(CO)C(=O)O)cc2Cl)cccc1-c1cccc(OCCCN2CCC(O)C2)c1C(F)(F)F` (stereo in doubt) [Example 3011, (S)-2-((5-chloro-2-((5-cyanopyridin-3-yl)methoxy)-4-((3′-(3-((R)-3-hydroxypyrrolidin-1-yl)propoxy)-2-methyl-2′-(trifluoromethyl)-[1,1′-biphenyl]-3-yl)methoxy)benzyl)amino)-3-hydroxy-2-methylpropanoic Acid], the IC50 worked out at 9 nM.

In the case of `Cc1c(COc2cc(OCc3cncc(C#N)c3)c(CN3CCCC[C@H]3C(=O)O)cc2Cl)cccc1-c1cccc(OCC(=O)N2CC[C@H](O)C2)c1` [Example 1005, (S)-1-(5-chloro-2-((5-cyanopyridin-3-yl)methoxy)-4-((3′-(2-((S)-3-hydroxypyrrolidin-1-yl)-2-oxoethoxy)-2-methyl-[1,1′-biphenyl]-3-yl)methoxy)benzyl)piperidine-2-carboxylic Acid], the IC50 came out at 37 nM.

Consider `Cc1c(COc2cc(OCc3cncc(C#N)c3)c(CN3CCCC[C@H]3C(=O)O)cc2Cl)cccc1-c1cccc(OCC(=O)N2CC[C@@H](O)C2)c1` [Example 1007, (S)-1-(5-chloro-2-((5-cyanopyridin-3-yl)methoxy)-4-((3′-(2-((R)-3-hydroxypyrrolidin-1-yl)-2-oxoethoxy)-2-methyl-[1,1′-biphenyl]-3-yl)methoxy)benzyl)piperidine-2-carboxylic Acid], for which the IC50 came out at 26 nM.

The assay is the same for the next values; noted with them: PD-L1-His 10 nM, PD-1-Ig 20 nM; value given as range class; read-out: Range or IC50.
Take `Cc1c(COc2cc(OCc3cncc(C#N)c3)c(CN[C@](C)(CO)C(=O)O)cc2Cl)cccc1-c1cccc(OCCCN2CCC(O)C2)c1C` (stereo in doubt) [Example 3005, (R)-2-((5-chloro-2-((5-cyanopyridin-3-yl)methoxy)-4-((3′-(3-((R)-3-hydroxypyrrolidin-1-yl)propoxy)-2,2′-dimethyl-[1,1′-biphenyl]-3-yl)methoxy)benzyl)amino)-3-hydroxy-2-methylpropanoic Acid]: the IC50 lay in the range of 0.21 to 10 nM.

With `Cc1c(COc2cc(OCc3cncc(C#N)c3)c(CN3CCCC[C@H]3C(=O)O)cc2Cl)cccc1-c1cccc(OCCCN2CCC(O)C2)c1C` (stereo in doubt) [Example 3006, (S)-1-(5-chloro-2-((5-cyanopyridin-3-yl)methoxy)-4-((3′-(3-((R)-3-hydroxypyrrolidin-1-yl)propoxy)-2,2′-dimethyl-[1,1′-biphenyl]-3-yl)methoxy)benzyl)piperidine-2-carboxylic Acid], the IC50 is 0.21 to 10 nM.

Take `Cc1c(COc2cc(OCc3cncc(C#N)c3)c(CNCCCN(C)C)cc2Cl)cccc1-c1cccc(OCCCN2CCC(O)C2)c1C` (stereo in doubt) [Example 3007, (R)-5-((4-chloro-2-(((3-(dimethylamino)propyl)amino)methyl)-5-((3′-(3-(3-hydroxypyrrolidin-1-yl)propoxy)-2,2′-dimethyl-[1,1′-biphenyl]-3-yl)methoxy)phenoxy)methyl)nicotinonitrile]: the IC50 fell in the range of 0.21 to 10 nM.

For `Cc1c(COc2cc(OCc3cncc(C#N)c3)c(CN[C@@](C)(CO)C(=O)O)cc2Cl)cccc1-c1cccc(OCCCN2CCC(O)C2)c1C#N` (stereo in doubt) [Example 3008, (S)-2-((5-chloro-4-((2′-cyano-3′-(3-((R)-3-hydroxypyrrolidin-1-yl)propoxy)-2-methyl-[1,1′-biphenyl]-3-yl)methoxy)-2-((5-cyanopyridin-3-yl)methoxy)benzyl)amino)-3-hydroxy-2-methylpropanoic Acid], the IC50 fell in the range of 0.21 to 10 nM.

`Cc1c(COc2cc(OCc3cncc(C#N)c3)c(CN[C@@H](CO)C(=O)O)cc2Cl)cccc1-c1cccc(OCCCN2CCC(O)C2)c1C#N` (stereo in doubt) [Example 3009, (S)-2-((5-chloro-4-((2′-cyano-3′-(3-((R)-3-hydroxypyrrolidin-1-yl)propoxy)-2-methyl-[1,1′-biphenyl]-3-yl)methoxy)-2-((5-cyanopyridin-3-yl)methoxy)benzyl)amino)-3-hydroxypropanoic Acid]: the IC50 was in the range of 0.21 to 10 nM.

Regarding `Cc1c(COc2cc(OCc3cncc(C#N)c3)c(CN[C@](C)(CO)C(=O)O)cc2Cl)cccc1-c1cccc(OCCCN2CCC(O)C2)c1C#N` (stereo in doubt) [Example 3010, (R)-2-((5-chloro-4-((2′-cyano-3′-(3-((R)-3-hydroxypyrrolidin-1-yl)propoxy)-2-methyl-[1,1′-biphenyl]-3-yl)methoxy)-2-((5-cyanopyridin-3-yl)methoxy)benzyl)amino)-3-hydroxy-2-methylpropanoic Acid], the half-maximal inhibitory concentration (IC50) fell in the range of 0.21 to 10 nM.

In the case of `Cc1c(COc2cc(OCc3cncc(C#N)c3)c(CN[C@@H](CO)C(=O)O)cc2Cl)cccc1-c1cccc(OCCCN2CCC(O)C2)c1C(F)(F)F` (stereo in doubt) [Example 3012, (S)-2-((5-chloro-2-((5-cyanopyridin-3-yl)methoxy)-4-((3′-(3-((R)-3-hydroxypyrrolidin-1-yl)propoxy)-2-methyl-2′-(trifluoromethyl)-[1,1′-biphenyl]-3-yl)methoxy)benzyl)amino)-3-hydroxypropanoic Acid], the half-maximal inhibitory concentration (IC50) fell in the range of 0.21 to 10 nM.

Take `Cc1c(COc2cc(OCc3cncc(C#N)c3)c(CN[C@](C)(CO)C(=O)O)cc2Cl)cccc1-c1cccc(OCCCN2CCC(O)C2)c1C(F)(F)F` (stereo in doubt) [Example 3013, (R)-2-((5-chloro-2-((5-cyanopyridin-3-yl)methoxy)-4-((3′-(3-((R)-3-hydroxypyrrolidin-1-yl)propoxy)-2-methyl-2′-(trifluoromethyl)-[1,1′-biphenyl]-3-yl)methoxy)benzyl)amino)-3-hydroxy-2-methylpropanoic Acid]: the half-maximal inhibitory concentration (IC50) lay within 0.21 to 10 nM.

`Cc1c(COc2cc(OCc3cncc(C#N)c3)c(CN3CCCC[C@H]3C(=O)O)cc2Cl)cccc1-c1cccc(OCCCN2CCC(O)C2)c1C(F)(F)F` (stereo in doubt) [Example 3014, (S)-1-(5-chloro-2-((5-cyanopyridin-3-yl)methoxy)-4-((3′-(3-((R)-3-hydroxypyrrolidin-1-yl)propoxy)-2-methyl-2′-(trifluoromethyl)-[1,1′-biphenyl]-3-yl)methoxy)benzyl)piperidine-2-carboxylic Acid]: the IC50 lay within 10 to 100 nM.

Turning to `Cc1c(COc2cc(OCc3cncc(C#N)c3)c(CN[C@H](CO)C(=O)O)cc2Cl)cccc1-c1cccc(OCCN2CCOCC2)c1` [Example 1001, (R)-2-((5-chloro-2-((5-cyanopyridin-3-yl)methoxy)-4-((2-methyl-3′-(2-morpholinoethoxy)-[1,1′-biphenyl]-3-yl)methoxy)benzyl)amino)-3-hydroxypropanoic Acid], the IC50 is 10 to 100 nM.

For the compound `Cc1c(COc2cc(OCc3cncc(C#N)c3)c(CN[C@@](C)(CO)C(=O)O)cc2Cl)cccc1-c1cccc(OCCN2CCOCC2)c1` [Example 1002, (S)-2-((5-chloro-2-((5-cyanopyridin-3-yl)methoxy)-4-((2-methyl-3′-(2-morpholinoethoxy)-[1,1′-biphenyl]-3-yl)methoxy)benzyl)amino)-3-hydroxy-2-methylpropanoic Acid], the IC50 fell in the range of 10 to 100 nM.

As for `Cc1c(COc2cc(OCc3cncc(C#N)c3)c(CN[C@H](CO)C(=O)O)cc2Cl)cccc1-c1cccc(OCC(=O)N2CC[C@H](O)C2)c1` [Example 1003, (R)-2-((5-chloro-2-((5-cyanopyridin-3-yl)methoxy)-4-((3′-(2-((S)-3-hydroxypyrrolidin-1-yl)-2-oxoethoxy)-2-methyl-[1,1′-biphenyl]-3-yl)methoxy)benzyl)amino)-3-hydroxypropanoic Acid], the IC50 fell in the range of 10 to 100 nM.

Regarding `Cc1c(COc2cc(OCc3cncc(C#N)c3)c(CN[C@@](C)(CO)C(=O)O)cc2Cl)cccc1-c1cccc(OCC(=O)N2CC[C@H](O)C2)c1` [Example 1004, (S)-2-((5-chloro-2-((5-cyanopyridin-3-yl)methoxy)-4-((3′-(2-((S)-3-hydroxypyrrolidin-1-yl)-2-oxoethoxy)-2-methyl-[1,1′-biphenyl]-3-yl)methoxy)benzyl)amino)-3-hydroxy-2-methylpropanoic Acid], the IC50 lay within 10 to 100 nM.

With `Cc1c(COc2cc(OCc3cncc(C#N)c3)c(CN[C@H](CO)C(=O)O)cc2Cl)cccc1-c1cccc(OCC(=O)N2CC[C@@H](O)C2)c1` [Example 1006, (R)-2-((5-chloro-2-((5-cyanopyridin-3-yl)methoxy)-4-((3′-(2-((R)-3-hydroxypyrrolidin-1-yl)-2-oxoethoxy)-2-methyl-[1,1′-biphenyl]-3-yl)methoxy)benzyl)amino)-3-hydroxypropanoic Acid], the IC50 lay in the range of 10 to 100 nM.

`Cc1c(COc2cc(OCc3cncc(C#N)c3)c(CN3C[C@@H](O)C[C@H]3C(=O)O)cc2Cl)cccc1-c1cccc(OCC(=O)N2CC[C@@H](O)C2)c1` [Example 1008, (2S,4S)-1-(5-chloro-2-((5-cyanopyridin-3-yl)methoxy)-4-((3′-(2-((R)-3-hydroxypyrrolidin-1-yl)-2-oxoethoxy)-2-methyl-[1,1′-biphenyl]-3-yl)methoxy)benzyl)-4-hydroxypyrrolidine-2-carboxylic Acid]: the IC50 is 10 to 100 nM.

Turning to `Cc1c(COc2cc(OCc3cncc(C#N)c3)c(CN[C@H](CO)C(=O)O)cc2Cl)cccc1-c1cccc(OCCC(=O)N2CC[C@@H](O)C2)c1` [Example 1009, (R)-2-((5-chloro-2-((5-cyanopyridin-3-yl)methoxy)-4-((3′-(3-((R)-3-hydroxypyrrolidin-1-yl)-3-oxopropoxy)-2-methyl-[1,1′-biphenyl]-3-yl)methoxy)benzyl)amino)-3-hydroxypropanoic Acid], the IC50 is 0.21 to 10 nM.

(Values after US10745382B2 (BRISTOL-MYERS SQUIBB COMPANY, priority 2015, dated 2020).)
